Assay results from patent US11166924B2, “N-methyl-d-aspartate receptor allosteric modulators and methods for their use” (Qingdao Primedicine Pharmaceutical Company, Ltd., priority 2016, dated 2021).

Tests used:
[1] = system: rat model of middle cerebral artery occlusion (MCAo); experiment: Cerebral ischemia (MCAo) infarct volume; assay type: in vivo
Description: Adult male Sprague Dawley rats weighting ˜200 g were anesthetized, and the middle cerebral artery (MCA) was exposed by making a craniotomy window (2 mm in diameter) 1 mm rostral to the anterior junction of the zygoma and the squamosal bone. We used the suture ligation method to achieve three-vessel occlusion. The exposed MCA was ligated with a square knot using a 10-0 nylon suture. Next, the bilateral common carotid arteries (CCAs) were clamped with nontraumatic arterial clips. Successful surgery was confirmed by a marked drop in regional cerebral blood flow, monitored by a laser Doppler flowmeter (PF-5010, Periflux system; Perimed AB). After 90 min ischemia, the suture and clips were removed to allow instant reperfusion. Experimental rats were subdivided into groups to receive different doses of Npam43 or saline/vehicle (as indicated) via femoral vein injection. 2,3,5-Triphenyltetrazolium chloride (TTC) was used to evaluate infarct size in stained brain sections. […]
The rats were anesthetized, with body temperature maintained at 37.0±0.5° C. with a heating pad during imaging. […] The non-infarct areas were drawn manually from slice to slice and the volumes were measured with Voxtool analysis software (General Electric). The infarct size was quantified by subtracting the non-infarct volume of the ischemic hemisphere from the total volume of the contralateral hemisphere. […]

GluN1/GluN2A^M112I = target: T1, GluN1/GluN2A^M112I (Rattus norvegicus, UniProt P35439+Q00959, M112I); experiment: Patch clamp in HEK293 cells expressing mutant GluN1/GluN2A M112I; assay type: cell-based
T1 construct: expressed in transfected cells; host or cells: HEK293
Description: Whole cell patch-clamp recordings were performed under voltage-clamp mode using an Axopatch 200B or 1D patch-clamp amplifier (Molecular Devices). Whole-cell currents were recorded at a holding potential of −60 mV unless indicated elsewhere, and signals were filtered at 2 kHz, digitized at 10 kHz (Digidata 1322A). Recording pipettes (3-5 MΩ) were filled with intracellular solution containing (mM): CsCl 140, HEPES 10, Mg-ATP 4, QX-314 5, pH 7.20; osmolarity, 290-295 mOsm. BAPTA (10 mM) was added in the intracellular solution (unless otherwise specified). The coverslips were continuously superfused with extracellular solution containing (mM): NaCl 140, KCl 5.4, HEPES 10, CaCl2 1.3, glucose 20, pH 7.4; osmolarity, 305-315 mOsm. NMDA-induced currents were applied by NMDA through perfusion fast-step (Warner Instruments). With perfusion fast-step system, NMDA application was achieved by using a two-square barrel glass tubing and depending on the age of the cultured neurons, CNQX (10 μM), TTX (0.5 μM) or BIC (10 μM) were added in the extracellular solution to minimize the activation of ionotropic glutamate receptors and voltage-gated sodium channels, respectively. All experiments were performed at room temperature. Recordings from at least six HEK293 cells/neurons were performed for all active compounds. […]

T1 sequence (Q00959 23-1464 M112I, other chains not shown): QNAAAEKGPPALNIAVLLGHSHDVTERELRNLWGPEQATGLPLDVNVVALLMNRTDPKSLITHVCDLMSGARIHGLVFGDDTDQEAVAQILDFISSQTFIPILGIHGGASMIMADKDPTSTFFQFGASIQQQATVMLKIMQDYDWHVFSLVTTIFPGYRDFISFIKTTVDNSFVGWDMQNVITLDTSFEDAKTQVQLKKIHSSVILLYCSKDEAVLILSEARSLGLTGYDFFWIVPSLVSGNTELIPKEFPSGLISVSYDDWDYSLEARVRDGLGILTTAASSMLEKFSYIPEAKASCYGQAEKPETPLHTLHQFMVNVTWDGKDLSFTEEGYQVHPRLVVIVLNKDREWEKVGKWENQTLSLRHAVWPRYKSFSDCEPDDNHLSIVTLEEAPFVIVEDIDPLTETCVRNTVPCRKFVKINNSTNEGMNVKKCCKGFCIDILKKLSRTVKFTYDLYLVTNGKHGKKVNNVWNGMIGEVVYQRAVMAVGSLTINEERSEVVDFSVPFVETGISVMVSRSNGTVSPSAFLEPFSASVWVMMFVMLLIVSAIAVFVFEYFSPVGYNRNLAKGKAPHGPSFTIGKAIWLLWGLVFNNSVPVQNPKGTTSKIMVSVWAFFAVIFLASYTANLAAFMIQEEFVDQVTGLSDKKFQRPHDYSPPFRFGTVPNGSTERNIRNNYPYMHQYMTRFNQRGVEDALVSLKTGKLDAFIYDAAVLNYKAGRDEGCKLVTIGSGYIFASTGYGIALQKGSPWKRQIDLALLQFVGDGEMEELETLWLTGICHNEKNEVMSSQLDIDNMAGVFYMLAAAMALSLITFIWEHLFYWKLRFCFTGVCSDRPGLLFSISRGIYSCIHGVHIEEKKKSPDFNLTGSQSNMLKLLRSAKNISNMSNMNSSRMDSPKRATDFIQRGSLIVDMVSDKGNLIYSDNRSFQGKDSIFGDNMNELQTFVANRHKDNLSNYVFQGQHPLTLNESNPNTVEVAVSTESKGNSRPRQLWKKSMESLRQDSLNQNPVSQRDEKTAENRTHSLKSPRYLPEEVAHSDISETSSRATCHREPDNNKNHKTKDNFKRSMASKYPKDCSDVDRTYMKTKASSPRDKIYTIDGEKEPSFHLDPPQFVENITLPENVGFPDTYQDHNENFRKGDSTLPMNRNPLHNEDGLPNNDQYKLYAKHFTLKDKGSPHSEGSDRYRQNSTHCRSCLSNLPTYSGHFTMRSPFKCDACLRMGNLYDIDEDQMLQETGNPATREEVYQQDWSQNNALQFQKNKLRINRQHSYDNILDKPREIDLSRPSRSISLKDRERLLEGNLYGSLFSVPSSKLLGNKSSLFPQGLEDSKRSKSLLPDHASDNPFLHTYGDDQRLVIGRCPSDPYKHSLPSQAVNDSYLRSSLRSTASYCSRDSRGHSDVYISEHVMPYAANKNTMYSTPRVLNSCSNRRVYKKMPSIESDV

With CCOc1cc(Cl)c(Cl)c(/C=N/NC(=O)c2ccccc2Br)c1O [Npam43, (E)-2-bromo-N′-(2,3-dichloro-5-ethoxy-6-hydroxybenzylidene)benzohydrazide] the “Infarct size, long term evaluation point” value ([1]; 7 days, MRI scanning, FIG. 25) was “reduces infarct size”, the Infarct volume ([1]; MCAo rats, compared to vehicle/saline, 24 h post ischemia (FIG. 24)) was “reduces infarct volume” and the Relative potentiation (GluN1/GluN2A^M112I; Table 3) was 255 ± 19%. For the same compound, the “Net Difference potentiation” value (GluN1/GluN2A^M112I; normalized to wild-type) was “+22.2 ± 0.94%”.
